Laboratory results from PubChem BioAssay (NCI).
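Where inhibition never reached the appropriate level, the endpoint shown equals the highest concentration tested. Otherwise, values were interpolated linearly from a five-concentration, 48-hour dose response in 96-well plates. GI50 = concentration required for 50% inhibition of growth. TGI: concentration producing complete growth inhibition.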

Columns and labels:
Experiment in all cases: NCI-60 cell line screen, 48 h
[1] = system: 786-0 renal
[2] = system: A498 renal
[3] = system: A549 NSCLC
[4] = system: ACHN renal
[5] = system: BT-549 breast
[6] = system: CAKI-1 renal
[7] = system: CCRF-CEM leukemia
[8] = system: COLO 205 colon
[9] = system: DU-145 prostate
[10] = system: EKVX NSCLC
[11] = system: HCC-2998 colon
[12] = system: HCT-116 colon
[13] = system: HCT-15 colon
[14] = system: HL-60(TB) leukemia
[15] = system: HOP-62 NSCLC
[16] = system: HOP-92 NSCLC
[17] = system: HS 578T breast
[18] = system: HT29 colon
[19] = system: IGROV1 ovarian
[20] = system: K-562 leukemia
[21] = system: KM12 colon
[22] = system: LOX IMVI melanoma
[23] = system: M14 melanoma
[24] = system: MALME-3M melanoma
[25] = system: MCF7 breast
[26] = system: MDA-MB-231 breast
[27] = system: MDA-MB-435
[28] = system: MOLT-4 leukemia
[29] = system: NCI-H226 lung
[30] = system: NCI-H23 lung
[31] = system: NCI-H460 lung
[32] = system: NCI-H522 lung
[33] = system: NCI/ADR-RES ovarian
[34] = system: OVCAR-3 ovarian
[35] = system: OVCAR-4 ovarian
[36] = system: OVCAR-5 ovarian
[37] = system: OVCAR-8 ovarian
[38] = system: PC-3 prostate
[39] = system: RPMI-8226 leukemia
[40] = system: RXF 393 renal
[41] = system: SF-268 CNS
[42] = system: SF-295 CNS
[43] = system: SF-539 CNS
[44] = system: SK-MEL-2 melanoma
[45] = system: SK-MEL-28 melanoma
[46] = system: SK-MEL-5 melanoma
[47] = system: SK-OV-3 ovarian
[48] = system: SN12C renal
[49] = system: SNB-19 CNS
[50] = system: SNB-75 CNS
[51] = system: SR leukemia
[52] = system: SW-620 colon
[53] = system: T-47D breast
[54] = system: TK-10 renal
[55] = system: U251 CNS
[56] = system: UACC-257 melanoma
[57] = system: UACC-62 melanoma
[58] = system: UO-31 renal

CN1CCN(Cc2ccc(NC(=O)c3cncc(C#Cc4cncc5[nH]ncc45)c3)cc2C(F)(F)F)CC1
GI50 [1]: 1800 nM
TGI [1]: 6.35 µM
GI50 [2]: 275 nM
TGI [2]: 1560 nM
GI50 [3]: 1.67 µM
TGI [3]: 6.79 µM
GI50 [4]: 1.14 µM
TGI [4]: 4.71 µM
GI50 [5]: 1390 nM
TGI [5]: 5.58 µM
GI50 [6]: 0.79 µM
TGI [6]: 2.6 µM
GI50 [7]: 1.25 µM
TGI [7]: 5.07 µM
GI50 [8]: 192 nM
TGI [8]: 3.56 µM
GI50 [9]: 1.36 µM
TGI [9]: 6.45 µM
GI50 [10]: 1.46 µM
TGI [10]: 6.27 µM
GI50 [11]: 0.777 µM
TGI [11]: 5.88 µM
GI50 [12]: 0.215 µM
TGI [12]: 2340 nM
GI50 [13]: 1.69 µM
TGI [13]: 6.14 µM
GI50 [14]: 0.249 µM
TGI [14]: 1380 nM
GI50 [15]: 0.882 µM
TGI [15]: 4.86 µM
GI50 [16]: 0.156 µM
TGI [16]: 1260 nM
GI50 [17]: 0.523 µM
TGI [17]: 2450 nM
GI50 [18]: 251 nM
TGI [18]: 6.24 µM
GI50 [19]: 0.454 µM
TGI [19]: 1450 nM
GI50 [20]: 0.005 µM
TGI [20]: 1640 nM
GI50 [21]: 0.0209 µM
TGI [21]: 2650 nM
GI50 [22]: 0.171 µM
TGI [22]: 0.689 µM
GI50 [23]: 0.157 µM
TGI [23]: 706 nM
GI50 [24]: 0.0987 µM
TGI [24]: 383 nM
GI50 [25]: 1.09 µM
TGI [25]: 6.77 µM
GI50 [26]: 230 nM
TGI [26]: 1040 nM
GI50 [27]: 0.556 µM
TGI [27]: 5.33 µM
GI50 [28]: 0.773 µM
TGI [28]: 4.44 µM
GI50 [29]: 206 nM
TGI [29]: 2860 nM
GI50 [30]: 0.488 µM
TGI [30]: 4.29 µM
GI50 [31]: 1.19 µM
TGI [31]: 5.6 µM
GI50 [32]: 1.16 µM
TGI [32]: 8 µM
GI50 [33]: 4.09 µM
TGI [33]: 11.3 µM
GI50 [34]: 1.46 µM
TGI [34]: 6.39 µM
GI50 [35]: 0.171 µM
TGI [35]: 5.34 µM
GI50 [36]: 601 nM
TGI [36]: 5.96 µM
GI50 [37]: 1.5 µM
TGI [37]: 6.73 µM
GI50 [38]: 1.14 µM
TGI [38]: 5.68 µM
GI50 [39]: 0.761 µM
TGI [39]: 2.48 µM
GI50 [40]: 665 nM
TGI [40]: 1950 nM
GI50 [41]: 0.899 µM
TGI [41]: 3.96 µM
GI50 [42]: 1730 nM
TGI [42]: 7.4 µM
GI50 [43]: 411 nM
TGI [43]: 1280 nM
GI50 [44]: 0.295 µM
TGI [44]: 1250 nM
GI50 [45]: 0.208 µM
TGI [45]: 1960 nM
GI50 [46]: 1.17 µM
TGI [46]: 4.58 µM
GI50 [47]: 1.4 µM
TGI [47]: 4.89 µM
GI50 [48]: 0.906 µM
TGI [48]: 5.73 µM
GI50 [49]: 3.81 µM
TGI [49]: 9.93 µM
GI50 [50]: 0.793 µM
TGI [50]: 2.51 µM
GI50 [51]: 1.04 µM
TGI [51]: 10.7 µM
GI50 [52]: 0.611 µM
TGI [52]: 3.64 µM
GI50 [53]: 1.8 µM
TGI [53]: 9.4 µM
GI50 [54]: 1380 nM
TGI [54]: 5.43 µM
GI50 [55]: 1.53 µM
TGI [55]: 7.76 µM
GI50 [56]: 500 nM
TGI [56]: 4.48 µM
GI50 [57]: 0.336 µM
TGI [57]: 1.31 µM
GI50 [58]: 1.01 µM
TGI [58]: 2520 nM

COc1ccc2c(c1)/C(=N/OC(C)=O)c1c-2c(Nc2ccc(/C(C)=N/OC(C)=O)cc2)nc2ccccc12
GI50 [1]: > 100000 nM
TGI [1]: > 100 µM
GI50 [2]: > 100000 nM
TGI [2]: > 100000 nM
GI50 [3]: 59.6 µM
TGI [3]: > 100 µM
GI50 [4]: 56.6 µM
TGI [4]: > 100 µM
GI50 [5]: > 100000 nM
TGI [5]: > 100 µM
GI50 [6]: 31.8 µM
TGI [6]: 98.2 µM
GI50 [7]: 23.9 µM
TGI [7]: 47.4 µM
GI50 [8]: > 100000 nM
TGI [8]: > 100 µM
GI50 [9]: 43.2 µM
TGI [9]: > 100 µM
GI50 [10]: 82.1 µM
TGI [10]: > 100 µM
GI50 [11]: 26 µM
TGI [11]: 59 µM
GI50 [12]: 35 µM
TGI [12]: > 100000 nM
GI50 [13]: 57.5 µM
TGI [13]: > 100 µM
GI50 [14]: 16.3 µM
TGI [14]: > 100000 nM
GI50 [15]: 38.1 µM
TGI [15]: > 100 µM
GI50 [16]: 70.1 µM
TGI [16]: > 100000 nM
GI50 [17]: 66 µM
TGI [17]: > 100000 nM
GI50 [18]: > 100000 nM
TGI [18]: > 100 µM
GI50 [19]: 71.6 µM
TGI [19]: > 100000 nM
GI50 [20]: 40.4 µM
TGI [20]: > 100000 nM
GI50 [21]: 43.5 µM
TGI [21]: > 100000 nM
GI50 [22]: 29.1 µM
TGI [22]: 63.5 µM
GI50 [23]: 68.9 µM
TGI [23]: > 100000 nM
GI50 [24]: 56.8 µM
TGI [24]: > 100000 nM
GI50 [25]: 53 µM
TGI [25]: > 100 µM
GI50 [26]: > 100000 nM
TGI [26]: > 100000 nM
GI50 [27]: 86.2 µM
TGI [27]: > 100 µM
GI50 [28]: 26.1 µM
TGI [28]: 72.8 µM
GI50 [29]: > 100000 nM
TGI [29]: > 100000 nM
GI50 [30]: 35.5 µM
TGI [30]: > 100 µM
GI50 [31]: 35.7 µM
TGI [31]: > 100 µM
GI50 [32]: 73.4 µM
TGI [32]: > 100 µM
GI50 [33]: 33 µM
TGI [33]: > 100 µM
GI50 [34]: 30.1 µM
TGI [34]: 87.4 µM
GI50 [35]: 20.8 µM
TGI [35]: 45.1 µM
GI50 [36]: > 100000 nM
TGI [36]: > 100 µM
GI50 [37]: 63.3 µM
TGI [37]: > 100 µM
GI50 [38]: 18.8 µM
TGI [38]: 38.4 µM
GI50 [39]: 29.2 µM
TGI [39]: 79.7 µM
GI50 [40]: > 100000 nM
TGI [40]: > 100000 nM
GI50 [41]: 37.7 µM
TGI [41]: > 100 µM
GI50 [42]: > 100000 nM
TGI [42]: > 100 µM
GI50 [43]: > 100000 nM
TGI [43]: > 100000 nM
GI50 [44]: 83.1 µM
TGI [44]: > 100000 nM
GI50 [45]: 44.5 µM
TGI [45]: > 100000 nM
GI50 [46]: 79.4 µM
TGI [46]: > 100 µM
GI50 [47]: 71.6 µM
TGI [47]: > 100 µM
GI50 [48]: 69.7 µM
TGI [48]: > 100 µM
GI50 [49]: > 100 µM
TGI [49]: > 100 µM
GI50 [50]: 25 µM
TGI [50]: 75.9 µM
GI50 [51]: 87.6 µM
TGI [51]: > 100 µM
GI50 [52]: 36.5 µM
TGI [52]: > 100 µM
GI50 [53]: 20.6 µM
TGI [53]: 43 µM
GI50 [54]: > 100000 nM
TGI [54]: > 100 µM
GI50 [55]: 96.8 µM
TGI [55]: > 100 µM
GI50 [56]: > 100000 nM
TGI [56]: > 100 µM
GI50 [57]: 25.5 µM
TGI [57]: 63.8 µM
GI50 [58]: 72.8 µM
TGI [58]: > 100000 nM
